# pIC50: −log10 of the molar value. Active and inactive are the calls of the source. The rule behind the calls is not given here.
# Columns and labels:
# [1] = target: Vascular endothelial growth factor receptor 2 (Homo sapiens, UniProt P35968)
# [2] = Cmax in BALB/c mouse at 2 mg/kg, iv; format: ADME, organism-based; parameters: dose 2 mg/kg, route intravenous; settings: in vivo
# [3] = target: Mast/stem cell growth factor receptor Kit (Homo sapiens, UniProt P10721); assay: Inhibition of KIT
# [4] = Half life in BALB/c mouse at 10 mg/kg, po; format: ADME, organism-based; parameters: dose 10 mg/kg, route oral; settings: in vivo
# A-375 [5] = assay: Antitumor activity against human A375 cells xenografted mouse model assessed as growth inhibition at 100 mg/kg, po; format: functional
# [6] = Half life in rat at 2 mg/kg, iv; format: ADME, organism-based; parameters: dose 2 mg/kg, route intravenous; settings: in vivo
# [7] = Cmax in BALB/c mouse at 10 mg/kg, po; format: ADME, organism-based; parameters: dose 10 mg/kg, route oral; settings: in vivo
# [8] = Cmax in rat at 2 mg/kg, iv; format: ADME, organism-based; parameters: dose 2 mg/kg, route intravenous; settings: in vivo
# [9] = target: Vascular endothelial growth factor receptor 1 (Homo sapiens, UniProt P17948); assay: Inhibition of FLT1
# Vascular endothelial growth factor receptor 1, sequence (P17948 whole entry): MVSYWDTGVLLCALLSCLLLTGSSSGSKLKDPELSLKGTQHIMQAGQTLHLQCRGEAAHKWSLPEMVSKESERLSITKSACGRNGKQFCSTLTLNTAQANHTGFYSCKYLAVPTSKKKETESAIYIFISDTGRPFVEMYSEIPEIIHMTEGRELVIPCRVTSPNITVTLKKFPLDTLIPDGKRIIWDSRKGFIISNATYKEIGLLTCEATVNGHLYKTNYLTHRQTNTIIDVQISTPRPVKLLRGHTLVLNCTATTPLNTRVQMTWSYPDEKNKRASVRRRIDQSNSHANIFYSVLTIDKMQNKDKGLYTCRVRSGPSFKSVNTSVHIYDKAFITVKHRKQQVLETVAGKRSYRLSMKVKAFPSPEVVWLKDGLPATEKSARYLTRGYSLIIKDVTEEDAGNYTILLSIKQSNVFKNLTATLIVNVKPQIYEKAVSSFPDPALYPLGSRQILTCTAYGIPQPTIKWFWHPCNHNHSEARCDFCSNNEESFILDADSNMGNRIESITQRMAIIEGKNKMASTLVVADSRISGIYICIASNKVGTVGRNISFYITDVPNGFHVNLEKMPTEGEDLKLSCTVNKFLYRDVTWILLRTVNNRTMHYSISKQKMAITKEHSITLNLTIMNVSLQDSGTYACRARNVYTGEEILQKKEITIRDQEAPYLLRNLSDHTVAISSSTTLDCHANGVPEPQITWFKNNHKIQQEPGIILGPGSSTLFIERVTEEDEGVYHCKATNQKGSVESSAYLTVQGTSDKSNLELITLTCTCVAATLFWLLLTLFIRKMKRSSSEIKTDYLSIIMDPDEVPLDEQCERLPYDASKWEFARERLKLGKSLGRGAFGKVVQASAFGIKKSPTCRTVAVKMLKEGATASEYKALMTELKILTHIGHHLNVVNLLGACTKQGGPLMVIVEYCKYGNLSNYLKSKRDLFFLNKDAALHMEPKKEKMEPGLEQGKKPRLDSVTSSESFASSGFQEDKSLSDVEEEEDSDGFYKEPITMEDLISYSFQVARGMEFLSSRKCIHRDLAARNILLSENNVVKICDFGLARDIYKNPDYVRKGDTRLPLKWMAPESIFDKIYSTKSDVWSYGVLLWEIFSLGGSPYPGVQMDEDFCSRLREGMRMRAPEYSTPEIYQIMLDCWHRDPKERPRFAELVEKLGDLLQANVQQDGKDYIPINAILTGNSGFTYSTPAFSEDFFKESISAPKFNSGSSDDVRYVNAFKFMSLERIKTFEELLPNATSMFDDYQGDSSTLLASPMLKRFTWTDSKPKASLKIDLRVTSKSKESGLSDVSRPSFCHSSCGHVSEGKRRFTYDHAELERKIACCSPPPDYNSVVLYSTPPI
# HCT-116 [10] = assay: Antitumor activity against human HCT116 cells xenografted po dosed mouse model measured after 10 to 14 days; format: functional, organism-based
# [11] = Clearance in BALB/c mouse at 2 mg/kg, iv; format: ADME, organism-based; parameters: dose 2 mg/kg, route intravenous; settings: in vivo
# Mus musculus [12] = assay: AUC in BALB/c mouse at 10 mg/kg, po; format: ADME, organism-based, Plasma; parameters: dose 10 mg/kg, route oral; settings: in vivo
# HCT-116 [13] = assay: Antiproliferative activity against human HCT116 cells at 100 uM; format: functional, cell-based
# [14] = target: T1, Receptor-type tyrosine-protein kinase FLT3 (Homo sapiens, UniProt P36888); assay: Inhibition of FLT3
# T1 sequence (P36888 whole entry): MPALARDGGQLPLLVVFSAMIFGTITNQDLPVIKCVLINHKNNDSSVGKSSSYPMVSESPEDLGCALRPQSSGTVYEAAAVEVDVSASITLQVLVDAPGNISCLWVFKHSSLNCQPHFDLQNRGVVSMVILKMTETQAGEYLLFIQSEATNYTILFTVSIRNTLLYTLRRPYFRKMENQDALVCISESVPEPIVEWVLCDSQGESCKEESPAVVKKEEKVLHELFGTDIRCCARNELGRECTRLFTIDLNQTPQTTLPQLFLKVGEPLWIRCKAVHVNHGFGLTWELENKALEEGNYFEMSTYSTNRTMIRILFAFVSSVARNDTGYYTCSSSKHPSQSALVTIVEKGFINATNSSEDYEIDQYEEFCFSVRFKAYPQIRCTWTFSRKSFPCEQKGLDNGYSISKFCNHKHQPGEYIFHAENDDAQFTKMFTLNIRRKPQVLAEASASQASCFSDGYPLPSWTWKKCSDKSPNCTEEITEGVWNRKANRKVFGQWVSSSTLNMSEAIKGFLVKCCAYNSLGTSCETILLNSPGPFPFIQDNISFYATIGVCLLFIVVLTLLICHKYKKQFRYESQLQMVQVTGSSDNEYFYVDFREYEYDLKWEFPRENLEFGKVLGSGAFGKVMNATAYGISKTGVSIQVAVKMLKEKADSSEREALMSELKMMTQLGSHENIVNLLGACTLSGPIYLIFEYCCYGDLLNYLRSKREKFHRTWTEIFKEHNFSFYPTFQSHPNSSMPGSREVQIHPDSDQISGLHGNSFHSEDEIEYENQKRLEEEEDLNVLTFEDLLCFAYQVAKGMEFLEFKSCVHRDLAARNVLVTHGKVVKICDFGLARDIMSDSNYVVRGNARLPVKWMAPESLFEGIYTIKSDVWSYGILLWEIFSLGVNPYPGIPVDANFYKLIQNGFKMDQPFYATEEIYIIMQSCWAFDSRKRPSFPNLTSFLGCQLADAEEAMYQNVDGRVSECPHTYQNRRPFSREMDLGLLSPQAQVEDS
# A-375 [15] = assay: Antiproliferative activity against human A375 cells at 100 uM; format: functional, cell-based
# Mus musculus [16] = assay: AUC in BALB/c mouse at 2 mg/kg, iv; format: ADME, organism-based, Plasma; parameters: dose 2 mg/kg, route intravenous; settings: in vivo
# Rattus norvegicus [17] = assay: AUC in rat at 2 mg/kg, iv; format: ADME, organism-based, Plasma; parameters: dose 2 mg/kg, route intravenous; settings: in vivo
# [18] = Clearance in rat at 2 mg/kg, iv; format: ADME, organism-based; parameters: dose 2 mg/kg, route intravenous; settings: in vivo
# [19] = Half life in BALB/c mouse at 2 mg/kg, iv; format: ADME, organism-based; parameters: dose 2 mg/kg, route intravenous; settings: in vivo
# [20] = Half life in rat at 10 mg/kg, po; format: ADME, organism-based; parameters: dose 10 mg/kg, route oral; settings: in vivo
# [21] = Cmax in rat at 10 mg/kg, po; format: ADME, organism-based; parameters: dose 10 mg/kg, route oral; settings: in vivo
# A-431 [22] = assay: Antitumor activity against human A431 cells xenografted mouse model measured at 100 to 200 mg/kg, po after 10 to 14 days; format: functional
# Mus musculus [23] = assay: Oral bioavailability in BALB/c mouse at 10 mg/kg; format: ADME, organism-based; settings: in vivo
# HCT-116 [24] = assay: Antitumor activity against human HCT116 cells xenografted mouse model measured at 100 to 200 mg/kg, po after 10 to 14 days; format: functional
# Rattus norvegicus [25] = assay: Oral bioavailability in rat at 10 mg/kg; format: ADME, organism-based; settings: in vivo
# A-431 [26] = assay: Antitumor activity against human A431 cells xenografted po dosed mouse model measured after 10 to 14 days; format: functional, organism-based
# Mus musculus [27] = assay: Toxicity in mouse assessed as body weight at 100 to 200 mg/kg, po after 24 days; format: organism-based; parameters: dose 100-200 mg/kg, route oral; settings: in vivo, 576 h
# [28] = Volume of distribution at steady state in BALB/c mouse at 2 mg/kg, iv; format: ADME, organism-based; parameters: dose 2 mg/kg, route intravenous; settings: in vivo, read-out: Vdss
# [29] = Volume of distribution at steady state in rat at 2 mg/kg, iv; format: ADME, organism-based; parameters: dose 2 mg/kg, route intravenous; settings: in vivo, read-out: Vdss
# Vascular endothelial growth factor receptor 2, sequence (P35968 whole entry): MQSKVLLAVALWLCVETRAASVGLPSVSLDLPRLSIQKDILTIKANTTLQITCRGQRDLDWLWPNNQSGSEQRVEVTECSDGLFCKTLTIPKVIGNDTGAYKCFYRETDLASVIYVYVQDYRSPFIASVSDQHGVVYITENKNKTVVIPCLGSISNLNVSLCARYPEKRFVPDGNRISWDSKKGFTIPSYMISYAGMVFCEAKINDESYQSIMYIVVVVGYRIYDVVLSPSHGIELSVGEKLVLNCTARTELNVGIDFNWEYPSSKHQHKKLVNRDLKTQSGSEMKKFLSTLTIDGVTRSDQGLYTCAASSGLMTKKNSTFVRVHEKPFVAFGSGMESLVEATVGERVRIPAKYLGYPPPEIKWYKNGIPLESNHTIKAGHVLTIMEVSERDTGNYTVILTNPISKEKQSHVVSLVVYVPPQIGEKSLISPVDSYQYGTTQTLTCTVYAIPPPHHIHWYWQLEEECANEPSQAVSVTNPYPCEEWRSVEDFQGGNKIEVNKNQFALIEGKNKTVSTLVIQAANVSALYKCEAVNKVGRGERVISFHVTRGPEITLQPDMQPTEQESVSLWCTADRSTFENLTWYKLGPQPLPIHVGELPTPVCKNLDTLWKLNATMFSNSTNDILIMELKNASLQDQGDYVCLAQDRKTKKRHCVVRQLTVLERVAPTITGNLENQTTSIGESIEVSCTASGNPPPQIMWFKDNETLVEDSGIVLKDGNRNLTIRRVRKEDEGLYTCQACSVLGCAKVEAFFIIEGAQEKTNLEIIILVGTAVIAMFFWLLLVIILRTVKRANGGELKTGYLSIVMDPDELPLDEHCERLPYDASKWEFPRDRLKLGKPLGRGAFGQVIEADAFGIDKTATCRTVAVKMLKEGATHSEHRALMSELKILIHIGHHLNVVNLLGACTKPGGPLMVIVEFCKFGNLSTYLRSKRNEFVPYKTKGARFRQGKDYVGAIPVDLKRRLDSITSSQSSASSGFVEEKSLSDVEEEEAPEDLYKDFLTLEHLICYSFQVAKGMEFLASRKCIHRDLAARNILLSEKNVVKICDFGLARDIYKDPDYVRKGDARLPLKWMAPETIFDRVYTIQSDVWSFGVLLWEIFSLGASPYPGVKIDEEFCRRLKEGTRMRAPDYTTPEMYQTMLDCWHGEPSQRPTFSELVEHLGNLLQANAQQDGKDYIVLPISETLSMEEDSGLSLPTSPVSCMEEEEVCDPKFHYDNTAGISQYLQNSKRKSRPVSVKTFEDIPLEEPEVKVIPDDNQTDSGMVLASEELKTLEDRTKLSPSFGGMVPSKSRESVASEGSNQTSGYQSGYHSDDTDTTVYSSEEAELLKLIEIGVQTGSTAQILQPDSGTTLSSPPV
# Mast/stem cell growth factor receptor Kit, sequence (P10721 whole entry): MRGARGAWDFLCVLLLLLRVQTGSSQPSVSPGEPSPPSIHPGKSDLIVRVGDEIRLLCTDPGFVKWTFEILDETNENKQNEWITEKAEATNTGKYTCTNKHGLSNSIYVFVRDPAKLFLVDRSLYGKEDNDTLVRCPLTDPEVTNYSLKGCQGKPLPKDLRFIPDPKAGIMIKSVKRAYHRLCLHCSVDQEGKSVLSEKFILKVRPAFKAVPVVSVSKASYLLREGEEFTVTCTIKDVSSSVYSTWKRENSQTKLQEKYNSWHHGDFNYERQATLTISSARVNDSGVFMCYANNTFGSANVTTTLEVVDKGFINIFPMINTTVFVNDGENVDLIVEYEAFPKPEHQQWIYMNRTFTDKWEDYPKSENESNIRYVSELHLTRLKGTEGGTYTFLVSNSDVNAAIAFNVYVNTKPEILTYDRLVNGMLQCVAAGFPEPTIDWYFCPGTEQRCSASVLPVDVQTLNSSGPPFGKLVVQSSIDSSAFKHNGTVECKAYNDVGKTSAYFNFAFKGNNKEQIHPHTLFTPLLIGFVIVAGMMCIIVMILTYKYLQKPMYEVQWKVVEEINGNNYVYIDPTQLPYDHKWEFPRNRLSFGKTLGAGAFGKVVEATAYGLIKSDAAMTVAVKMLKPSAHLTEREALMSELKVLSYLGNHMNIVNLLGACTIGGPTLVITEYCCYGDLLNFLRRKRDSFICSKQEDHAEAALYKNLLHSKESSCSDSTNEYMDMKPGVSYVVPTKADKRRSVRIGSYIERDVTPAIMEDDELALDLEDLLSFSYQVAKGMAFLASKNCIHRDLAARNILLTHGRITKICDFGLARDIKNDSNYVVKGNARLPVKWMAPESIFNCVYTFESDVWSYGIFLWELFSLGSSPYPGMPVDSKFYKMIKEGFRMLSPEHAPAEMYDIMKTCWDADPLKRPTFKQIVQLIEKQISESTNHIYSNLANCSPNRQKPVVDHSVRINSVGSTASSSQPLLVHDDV
smiles,measurement,setting,value
CNC(=O)Nc1ccc(Oc2ncnc(N)c2/C=N/OC)cc1Cl,pIC50,[1],7.60
CO/N=C/c1c(N)ncnc1Oc1ccc(NC(=O)Nc2nccs2)c(Cl)c1,pIC50,[1],8.47
CO/N=C/c1c(N)ncnc1Oc1ccc(NC(=O)OC)cc1Cl,pIC50,[1],6.82
CCNC(=O)Nc1ccc(Oc2ncnc(N)c2/C=N/OC)cc1,pIC50,[1],6.85
CO/N=C/c1c(N)ncnc1Oc1ccc(NC(=O)Nc2ccccc2C)c(Cl)c1,pIC50,[1],8.10
CNC(=O)Nc1ccc(Oc2ncnc(N)c2/C=N/OC)c(Br)c1,pIC50,[1],< 4.00
CO/N=C/c1c(N)ncnc1Oc1ccc(NC(=O)Nc2ccccc2OC)c(Cl)c1,pIC50,[1],8.60
CO/N=C/c1c(N)ncnc1Oc1ccc(NC(=O)NCCCCN2CCCC2)c(Cl)c1,pIC50,[1],6.12
CO/N=C/c1c(N)ncnc1Oc1ccc(NC(C)=O)cc1Cl,pIC50,[1],5.66
CO/N=C/c1c(N)ncnc1Oc1ccc(NC(=O)Nc2cc(C)on2)c(Cl)c1,pIC50,[1],8.70
CO/N=C/c1c(N)ncnc1Oc1ccc(NC(=O)Nc2ccccc2F)c(Cl)c1,pIC50,[1],8.48
CO/N=C/c1c(N)ncnc1Oc1ccc(NC(=O)NCCO)c(Cl)c1,pIC50,[1],6.77
CCCNC(=O)Nc1ccc(Oc2ncnc(N)c2/C=N/OC)cc1Cl,pIC50,[1],7.55
CO/N=C/c1c(N)ncnc1Oc1ccc(NC(=O)Nc2ccc(F)cc2)c(Cl)c1,pIC50,[1],8.55
CO/N=C/c1c(N)ncnc1Oc1ccc(NC(=O)Nc2cccc(F)c2)c(Cl)c1,pIC50,[1],8.77
CCNC(=O)Nc1ccc(Oc2ncnc(N)c2/C=N/OC)cc1Cl,Cmax,[2],2990 ng/mL
same,pIC50,[3],6.29
same,half-life,[4],2.1 h
same,inhibition in vivo at 100 mg/kg,A-375 [5],90%
same,half-life,[6],0.7 h
same,Cmax,[7],2790 ng/mL
same,Cmax,[8],5400 ng/mL
same,pIC50,[9],5.35
same,Activity,HCT-116 [10],Dose-dependent effect
same,clearance,[11],5.6 mL/min/kg
same,AUC,Mus musculus [12],12305 ng·h/mL
same,Activity,HCT-116 [13],inactive
same,pIC50,[14],5.32
same,Activity,A-375 [15],inactive
same,AUC,Mus musculus [16],6114 ng·h/mL
same,AUC,Rattus norvegicus [17],4799 ng·h/mL
same,clearance,[18],7.4 mL/min/kg
same,half-life,[19],2.8 h
same,half-life,[20],10 h
same,Cmax,[21],1030 ng/mL
same,inhibition (INH),A-431 [22],90%
same,F,Mus musculus [23],16%
same,inhibition (INH),HCT-116 [24],90%
same,F,Rattus norvegicus [25],30%
same,Activity,A-431 [26],Dose-dependent effect
same,Activity,Mus musculus [27],Non-toxic
same,Vd,[28],0.7 L/kg
same,Vd,[29],0.4 L/kg
CO/N=C/c1c(N)ncnc1Oc1ccc(NC(=O)NCCCO)c(Cl)c1,pIC50,[1],6.40
CNC(=O)Cc1ccc(Oc2ncnc(N)c2/C=N/OC)cc1,pIC50,[1],4.71
CO/N=C/c1c(N)ncnc1Oc1ccc(NC(=O)NC2CC2)c(Cl)c1,pIC50,[1],7.54
CO/N=C/c1c(N)ncnc1Oc1ccc(NC(=O)Nc2ccc(F)cc2F)c(Cl)c1,pIC50,[1],8.52
CO/N=C/c1c(N)ncnc1Oc1ccc(NC(=O)Nc2ccccc2)c(Cl)c1,pIC50,[1],8.52
CO/N=C/c1c(N)ncnc1Oc1ccc(NC(=O)Nc2ccccn2)c(Cl)c1,pIC50,[1],7.47
CO/N=C/c1c(N)ncnc1Oc1ccc(NC(=O)Nc2ccccc2Cl)c(Cl)c1,pIC50,[1],8.59
CO/N=C/c1c(N)ncnc1Oc1ccc(NC(=O)NCc2ccc(F)cc2F)c(Cl)c1,pIC50,[1],7.99
CO/N=C/c1c(N)ncnc1Oc1ccc(NC(=O)Nc2cccnc2)c(Cl)c1,pIC50,[1],8.00
CO/N=C/c1c(N)ncnc1Oc1ccc(NC(=O)Nc2nc(C)c(C)s2)c(Cl)c1,pIC50,[1],8.70
CO/N=C/c1c(N)ncnc1Oc1ccc(NC(=O)NC2CCCCC2)c(Cl)c1,pIC50,[1],8.19
CNC(=O)Nc1ccc(Oc2ncnc(N)c2/C=N/OC)c(F)c1,pIC50,[1],6.85
CO/N=C/c1c(N)ncnc1Oc1ccc(NC(=O)NCCN(C)C)c(Cl)c1,pIC50,[1],6.55
CO/N=C/c1c(N)ncnc1Oc1ccc(NC(=O)NC(C)C)c(Cl)c1,pIC50,[1],7.14
CCNC(=O)Oc1ccc(Oc2ncnc(N)c2/C=N/OC)cc1,pIC50,[1],< 4.00
CCNC(=O)Nc1ccc(Oc2ncnc(N)c2/C=N/OC)c(C)c1,pIC50,[1],6.74
CO/N=C/c1c(N)ncnc1Oc1ccc(NC(=O)Nc2ccncc2)c(Cl)c1,pIC50,[1],7.96

# Reference: ChEMBL document CHEMBL1681715, “4-aminopyrimidine-5-carbaldehyde oximes as potent VEGFR-2 inhibitors. Part II” (Bioorg Med Chem Lett, 2011)
